Earlier results, collected in paper PMC9318694 (Molecules, 2022).
Where a name gives a salt, the structure may show the parent alone. Read-outs that look alike come from different tables or passages of the source.

Target: D2R (Homo sapiens, UniProt P14416)
Settings: cited from earlier work
[1] = Table S1, data set of actives, radio-ligand binding assays, ref ChEMBL, [50]-[70], read-out: KI
[2] = Table S2, data set of inactives, radio-ligand binding (RLB) assays, ref ChEMBL, [71]-[92], read-out: KI

Sequence of D2R (P14416 whole entry): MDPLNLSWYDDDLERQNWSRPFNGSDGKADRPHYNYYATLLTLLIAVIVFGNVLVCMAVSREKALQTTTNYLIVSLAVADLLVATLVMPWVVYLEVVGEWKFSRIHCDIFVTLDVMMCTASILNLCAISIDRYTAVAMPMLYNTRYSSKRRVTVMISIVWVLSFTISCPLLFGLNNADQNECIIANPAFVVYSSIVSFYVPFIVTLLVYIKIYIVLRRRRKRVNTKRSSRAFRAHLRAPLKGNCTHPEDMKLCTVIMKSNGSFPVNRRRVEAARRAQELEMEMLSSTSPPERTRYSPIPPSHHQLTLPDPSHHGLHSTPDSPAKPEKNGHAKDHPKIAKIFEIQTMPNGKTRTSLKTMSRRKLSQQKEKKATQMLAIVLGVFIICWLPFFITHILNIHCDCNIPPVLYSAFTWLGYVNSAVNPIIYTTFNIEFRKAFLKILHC

| Compound | Ki [2] | other results |
| --- | --- | --- |
| CN[C@@H]1Cc2cccc3c2n(c(=O)n3CCOCCOCCOCCOc2ccc3c(c2)NC(=O)CC3)C1 [SC48, (R)-5-(methylamino)-1-(2-(2-(2-(2-((2-oxo-1,2,3,4-tetrahydroquinolin-7-yl)oxy)ethoxy)ethoxy)ethoxy)ethyl)-5,6-dihydro-4H-imidazo[4,5,1-ij]quinolin-2(1H)-one] | – | Ki [1]: 0.306 µM |
| CN(CCCCOc1ccc2c(c1)NC(=O)CC2)[C@@H]1Cc2cccc3[nH]c(=O)n(c23)C1 [SC49, (R)-5-(methyl(4-((2-oxo-1,2,3,4-tetrahydroquinolin-7-yl)oxy)butyl)amino)-5,6-dihydro-4H-imidazo[4,5,1-ij]quinolin-2(1H)-one] | – | Ki [1]: 0.0401 µM |
| CN[C@@H]1Cc2cccc3c2n(c(=O)n3CCOCCOCCCCc2ccccc2)C1 [SC50, (R)-5-(methylamino)-1-(2-(2-(4-phenylbutoxy)ethoxy)ethyl)-5,6-dihydro-4H-imidazo[4,5,1-ij]quinolin-2(1H)-one] | – | Ki [1]: 0.111 µM |
| CN[C@@H]1Cc2cccc3c2n(c(=O)n3CCCCCCCCCCCCOc2ccc3c(c2)NC(=O)CC3)C1 [SC51, (R)-5-(methylamino)-1-(12-((2-oxo-1,2,3,4-tetrahydroquinolin-7-yl)oxy)dodecyl)-5,6-dihydro-4H-imidazo[4,5,1-ij]quinolin-2(1H)-one] | – | Ki [1]: 0.284 µM |
| O=C1CCc2ccc(OCCCCN3CCCN(c4ccc(O)c5[nH]c(=O)ccc45)CC3)cc2N1 [SC52, 8-hydroxy-5-(4-(4-((2-oxo-1,2,3,4-tetrahydroquinolin-7-yl)oxy)butyl)-1,4-diazepan-1-yl)quinolin-2(1H)-one] | – | Ki [1]: 0.0016 µM; Ki (active data set, ref ChEMBL, read-out: KI / binding affinity): < 0.002 µM |
| CCCN(CCN1CCN(c2ccc(-c3ccccc3)cc2)CC1)[C@H]1CCc2nc(N)sc2C1 [SC53, (S)-N6-(2-(4-([1,1'-biphenyl]-4-yl)piperazin-1-yl)ethyl)-N6-propyl-4,5,6,7-tetrahydrobenzo[d]thiazole-2,6-diamine] | – | Ki [1]: 0.264 µM |
| CCCN(CCN1CCN(c2cccc3ncccc23)CC1)[C@H]1CCc2nc(N)sc2C1 [SC55, (S)-N6-propyl-N6-(2-(4-(quinolin-5-yl)piperazin-1-yl)ethyl)-4,5,6,7-tetrahydrobenzo[d]thiazole-2,6-diamine] | – | Ki [1]: 0.0577 µM |
| CCCN(CCN1CCN(c2nccc3ccccc23)CC1)[C@H]1CCc2nc(N)sc2C1 [SC56, (S)-N6-(2-(4-(isoquinolin-1-yl)piperazin-1-yl)ethyl)-N6-propyl-4,5,6,7-tetrahydrobenzo[d]thiazole-2,6-diamine] | – | Ki [1]: 0.269 µM |
| CCCN(CCN1CCN(c2ccnc3ccccc23)CC1)[C@H]1CCc2nc(N)sc2C1 [SC57, (S)-N6-propyl-N6-(2-(4-(quinolin-4-yl)piperazin-1-yl)ethyl)-4,5,6,7-tetrahydrobenzo[d]thiazole-2,6-diamine] | – | Ki (read-out: KI): 0.109 µM |
| Clc1ccc(N2CCN(CCCCNc3noc(-c4ccccc4)n3)CC2)cc1 [SC62, N-[4-[4-(4-chlorophenyl)piperazin-1-yl]butyl]-5-phenyl-1,2,4-oxadiazol-3-amine;hydrochloride] | 79 µM | – |
| COc1cc2c(cc1OC)CN(C=Nc1ccc3c(c1)C1SCCSC1C3)CC2 (stereo not drawn) [SC63, N-(3,4a,9,9a-tetrahydro-2H-indeno[1,2-b][1,4]dithiin-6-yl)-1-(6,7-dimethoxy-3,4-dihydro-1H-isoquinolin-2-yl)methanimine] | > 100 µM | – |
| COc1cc2c(cc1OC)CN(C=Nc1ccc3c(c1)C1SCCSC1CC3)CC2 (stereo not drawn) [SC64, N-(2,3,4a,5,6,10b-hexahydrobenzo[f][1,4]benzodithiin-9-yl)-1-(6,7-dimethoxy-3,4-dihydro-1H-isoquinolin-2-yl)methanimine] | > 300 µM | – |
| COc1ccc2[nH]c3c(c2c1)CCN=C3c1cc([N+](=O)[O-])cn1C [SC65, 6-methoxy-1-(1-methyl-4-nitropyrrol-2-yl)-4,9-dihydro-3H-pyrido[3,4-b]indole] | 200 µM | – |
| COc1cc2c(cc1OC)CN(C=Nc1ccc3c(c1)C1SCCSC1CC3)CC2 (stereo not drawn) [SC66, N-(2,3,4a,5,6,10b-hexahydrobenzo[f][1,4]benzodithiin-9-yl)-1-(6,7-dimethoxy-3,4-dihydro-1H-isoquinolin-2-yl)methanimine] | > 100 µM | – |
| COc1cc2c(cc1OC)CN(C=Nc1ccc3c(c1)C(O)CC3)CC2 (stereo not drawn) [SC67, 6-[(6,7-dimethoxy-3,4-dihydro-1H-isoquinolin-2-yl)methylideneamino]-2,3-dihydro-1H-inden-1-ol] | > 300 µM | – |
| OCc1cccn2ncc(CN3CCN(c4ccc(Cl)cc4)CC3)c12 [SC70, [3-[[4-(4-chlorophenyl)piperazin-1-yl]methyl]pyrazolo[1,5-a]pyridin-4-yl]methanol] | 79 µM | – |
| N#CC(C#N)=Cc1ccc(CN2CCN(c3ccccc3)CC2)[nH]1 [SC71, 2-[[5-[(4-phenylpiperazin-1-yl)methyl]-1H-pyrrol-2-yl]methylidene]propanedinitrile] | > 100 µM | – |
| NC(=O)C[S@@+]([O-])C(c1ccccc1)c1ccccc1 [SC72, 2-[(R)-benzhydrylsulfinyl]acetamide] | – | Ki: > 100 µM |
| CCCNC1CCn2ncc(C(=O)OC)c2C1 (stereo not drawn) [SC94, methyl 5-(propylamino)-4,5,6,7-tetrahydropyrazolo[1,5-a]pyridine-3-carboxylate] | > 100 µM | – |
| Fc1ccc(N2CCN(Cc3cn4ccncc4n3)CC2)cc1 [SC95, 2-[[4-(4-fluorophenyl)piperazin-1-yl]methyl]imidazo[1,2-a]pyrazine] | 68 µM | – |
| Cc1ccc(CNCC2(F)CCN(C(=O)c3cc(Br)cs3)CC2)nc1 [SC96, (4-bromothiophen-2-yl)-[4-fluoro-4-[[(5-methylpyridin-2-yl)methylamino]methyl]piperidin-1-yl]methanone] | 100 µM | – |

| Compound | Ki [2] | other results |
| --- | --- | --- |
| CCCN(CCC)[C@@H]1CCn2nccc2C1 [SC97, (5R)-N,N-dipropyl-4,5,6,7-tetrahydropyrazolo[1,5-a]pyridin-5-amine] | 55 µM | – |
| FCCOc1ccc(N2CCN(Cc3cnn4ccccc34)CC2)cc1 [SC98, 3-[[4-[4-(2-fluoroethoxy)phenyl]piperazin-1-yl]methyl]pyrazolo[1,5-a]pyridine] | 79 µM | – |
| CCCNCCCCNC(=O)c1ccc(-c2ccccc2)cc1 [SC99, 4-phenyl-N-[4-(propylamino)butyl]benzamide] | > 100 µM | – |
| COc1cccc(CCc2ccccc2OCCCCN2CCN(c3ccc(F)cc3)CC2)c1 [SC100, 1-(4-fluorophenyl)-4-[4-[2-[2-(3-methoxyphenyl)ethyl]phenoxy]butyl]piperazine] | 1320 µM | – |
| COc1cccc(CCc2ccccc2OCCN2CCN(c3ncccn3)CC2)c1 [SC101, 2-[4-[2-[2-[2-(3-methoxyphenyl)ethyl]phenoxy]ethyl]piperazin-1-yl]pyrimidine] | 629 µM | – |
| COc1cccc(CCc2ccccc2OCCCCN2CCN(c3cccc(Cl)c3)CC2)c1 [SC102, 1-(3-chlorophenyl)-4-[4-[2-[2-(3-methoxyphenyl)ethyl]phenoxy]butyl]piperazine] | > 1000 µM | – |
| COc1cccc(CCc2ccccc2OCCCCCN2CCN(c3cccc(Cl)c3)CC2)c1 [SC103, 1-(3-chlorophenyl)-4-[5-[2-[2-(3-methoxyphenyl)ethyl]phenoxy]pentyl]piperazine] | > 1000 µM | – |
| COc1cccc(CCc2ccccc2OCCN2CCN(c3cccc(C(F)(F)F)c3)CC2)c1 [SC104, 1-[2-[2-[2-(3-methoxyphenyl)ethyl]phenoxy]ethyl]-4-[3-(trifluoromethyl)phenyl]piperazine] | > 1000 µM | – |
| COc1cccc(CCc2ccccc2OCCCN2CCN(c3cccc(C(F)(F)F)c3)CC2)c1 [SC105, 1-[3-[2-[2-(3-methoxyphenyl)ethyl]phenoxy]propyl]-4-[3-(trifluoromethyl)phenyl]piperazine] | 1410 µM | – |
| COc1cccc(CCc2ccccc2OCCCN2CCN(c3ccc(F)cc3)CC2)c1 [SC106, 1-(4-fluorophenyl)-4-[3-[2-[2-(3-methoxyphenyl)ethyl]phenoxy]propyl]piperazine] | 655 µM | – |
| COc1cccc(CCc2ccccc2OCCCN2CCN(c3cccc(Cl)c3)CC2)c1 [SC107, 1-(3-chlorophenyl)-4-[3-[2-[2-(3-methoxyphenyl)ethyl]phenoxy]propyl]piperazine] | 298 µM | – |
| COc1cccc(CCc2ccccc2OCCCCCN2CCN(c3ccccc3OC)CC2)c1 [SC108, 1-(2-methoxyphenyl)-4-[5-[2-[2-(3-methoxyphenyl)ethyl]phenoxy]pentyl]piperazine] | > 1000 µM | – |
| COc1cccc(CCc2ccccc2OCCN2CCN(c3ccc(F)cc3)CC2)c1 [SC109, 1-(4-fluorophenyl)-4-[2-[2-[2-(3-methoxyphenyl)ethyl]phenoxy]ethyl]piperazine] | > 1000 µM | – |
| COc1cccc(CCc2ccccc2OCCCCN2CCN(c3cccc(C(F)(F)F)c3)CC2)c1 [SC110, 1-[4-[2-[2-(3-methoxyphenyl)ethyl]phenoxy]butyl]-4-[3-(trifluoromethyl)phenyl]piperazine] | > 1000 µM | – |
| COc1cccc(CCc2ccccc2OCCCCCN2CCN(C)CC2)c1 [SC111, 1-[5-[2-[2-(3-methoxyphenyl)ethyl]phenoxy]pentyl]-4-methylpiperazine] | > 1000 µM | – |
| COc1cccc(CCc2ccccc2OCCCCN2CCc3cc(OC)c(OC)cc3C2)c1 [SC112, 6,7-dimethoxy-2-[4-[2-[2-(3-methoxyphenyl)ethyl]phenoxy]butyl]-3,4-dihydro-1H-isoquinoline] | > 1000 µM | – |
| COc1cccc(CCc2ccccc2OCCCCN2CCc3ccccc3C2)c1 [SC113, 2-[4-[2-[2-(3-methoxyphenyl)ethyl]phenoxy]butyl]-3,4-dihydro-1H-isoquinoline] | > 1000 µM | – |
| COc1cccc(CCc2ccccc2OCCN2CCc3cc(OC)c(OC)cc3C2)c1 [SC114, 6,7-dimethoxy-2-[2-[2-[2-(3-methoxyphenyl)ethyl]phenoxy]ethyl]-3,4-dihydro-1H-isoquinoline] | > 1000 µM | – |
| COc1cccc(CCc2ccccc2OCCCN2CCc3cc(OC)c(OC)cc3C2)c1 [SC115, 6,7-dimethoxy-2-[3-[2-[2-(3-methoxyphenyl)ethyl]phenoxy]propyl]-3,4-dihydro-1H-isoquinoline] | – | Ki (read-out: KI): > 1000 µM |
| COc1cccc(CCc2ccccc2OCCCCN2CCN(C)CC2)c1 [SC116, 1-[4-[2-[2-(3-methoxyphenyl)ethyl]phenoxy]butyl]-4-methylpiperazine] | > 1000 µM | – |
